Assays:
Assay in all cases: Greenhouse whole-plant imazapir dose response (Example 8)
Format in all cases: in vivo, Helianthus annuus
[1] = system: sunflower GIM 5-7 (Manteiner Line, A205V); conditions: GIM5-7, 14 DAT
Experimental: (§1) A greenhouse study was conducted to quantify and contrast the imazapir sensitivity of the mutants A122T and A205V in different genetic backgrounds at the whole plant level in sunflower. Seeds of the different sunflower lines that were used in this study were obtained under field conditions.
(§2) Seeds were sown in Petri dishes and, after germination, plantlets were transplanted to pots of 10 cm of diameter in a potting media consisting of equal parts of vermiculite, soil and sand. Plants were grown in a greenhouse under natural light conditions supplemented with 400 W sodium halide lamps to provide a 16 hrs daylength. Day/night temperatures were 25 and 20° C., respectively. At the V2 stage 10 plants of each genotype were randomly assigned to each treatment consisting of […] imazapir doses (0, 40, 80, 160, 240, 320, 400 and 480 g ai/ha), and a zero-time biomass determination. Experiment was arranged as a randomized block design with a full factorial (sunflower line×treatment) arrangement of treatments and 10 replications.
(§3) On the day of herbicide application ten plants of each genotype were cut at the cotyledonal node and dried at 60° C. for 48 hrs zero-time for dried weight determination. […] Height was determined as the distance between the cotyledonal node and the apex of each plant. For root biomass determination, each plant was taken from the pot and the potting media was washed out from the roots. Above ground biomass data from each line were converted to biomass accumulation after application by subtracting the appropriate average zero-time biomass from each sample. Dry biomass data were converted to percentages of the untreated control plants within each line to allow direct comparisons between groups.

[2] = system: sunflower TH12 (Restorer Line, A122T); conditions: 14 DAT
Experimental: as §1, §2, §3

[3] = system: sunflower IB920 (Manteiner Line, A205V); conditions: 14 DAT
Experimental: as §1, §2, §3

[4] = system: sunflower TH6 (Hybrid, A122T); conditions: 14 DAT
Experimental: as §1, §2, §3

[5] = system: sunflower GM40 (Manteiner Line, A122T); conditions: 14 DAT
Experimental: as §1, §2, §3

CC(C)C1(C)N=C(c2ncccc2C(=O)O)NC1=O (stereo not drawn) [imazapir, imazapyr]
biomass accumulation (dry biomass, % of untreated) ([1]; 0.5× (40 g ai/ha)): 92.9% | plant height (% of untreated) ([1]; 0.5× (40 g ai/ha)): 79.1% | root dry weight (% of untreated) ([1]; 0.5× (40 g ai/ha)): 79.2% | biomass accumulation (dry biomass, % of untreated) ([1]; 1× (80 g ai/ha)): 75.1% | plant height (% of untreated) ([1]; 1× (80 g ai/ha)): 76.7% | root dry weight (% of untreated) ([1]; 1× (80 g ai/ha)): 56.3% | biomass accumulation (dry biomass, % of untreated) ([1]; 2× (160 g ai/ha)): 55.1% | plant height (% of untreated) ([1]; 2× (160 g ai/ha)): 57.7% | root dry weight (% of untreated) ([1]; 2× (160 g ai/ha)): 40.6% | biomass accumulation (dry biomass, % of untreated) ([1]; 3× (240 g ai/ha)): 45.6% | plant height (% of untreated) ([1]; 3× (240 g ai/ha)): 55.3% | root dry weight (% of untreated) ([1]; 3× (240 g ai/ha)): 40.2% | biomass accumulation (dry biomass, % of untreated) ([1]; 4× (320 g ai/ha)): 31.8% | plant height (% of untreated) ([1]; 4× (320 g ai/ha)): 27.3% | root dry weight (% of untreated) ([1]; 4× (320 g ai/ha)): 34.0% | biomass accumulation (dry biomass, % of untreated) ([1]; 5× (400 g ai/ha)): 34.2% | plant height (% of untreated) ([1]; 5× (400 g ai/ha)): 37.2% | root dry weight (% of untreated) ([1]; 5× (400 g ai/ha)): 48.5% | biomass accumulation (dry biomass, % of untreated) ([1]; 6× (480 g ai/ha)): 36.8% | plant height (% of untreated) ([1]; 6× (480 g ai/ha)): 30.0% | root dry weight (% of untreated) ([1]; 6× (480 g ai/ha)): 43.1% | Phytotoxicity Index ([2]; 0.5× (40 g ai/ha)): 0.0 | biomass accumulation (dry biomass, % of untreated) ([2]; 0.5× (40 g ai/ha)): 100.0% | plant height (% of untreated) ([2]; 0.5× (40 g ai/ha)): 100.0% | root dry weight (% of untreated) ([2]; 0.5× (40 g ai/ha)): 99.4% | Phytotoxicity Index ([2]; 1× (80 g ai/ha)): 0.0 | biomass accumulation (dry biomass, % of untreated) ([2]; 1× (80 g ai/ha)): 99.1% | plant height (% of untreated) ([2]; 1× (80 g ai/ha)): 100.0% | root dry weight (% of untreated) ([2]; 1× (80 g ai/ha)): 100% | Phytotoxicity Index ([2]; 2× (160 g ai/ha)): 0.0 | biomass accumulation (dry biomass, % of untreated) ([2]; 2× (160 g ai/ha)): 97.0% | plant height (% of untreated) ([2]; 2× (160 g ai/ha)): 101.8% | root dry weight (% of untreated) ([2]; 2× (160 g ai/ha)): 100% | Phytotoxicity Index ([2]; 3× (240 g ai/ha)): 0.0 | biomass accumulation (dry biomass, % of untreated) ([2]; 3× (240 g ai/ha)): 96.1% | plant height (% of untreated) ([2]; 3× (240 g ai/ha)): 97.0% | root dry weight (% of untreated) ([2]; 3× (240 g ai/ha)): 100.0% | Phytotoxicity Index ([2]; 4× (320 g ai/ha)): 0.0 | biomass accumulation (dry biomass, % of untreated) ([2]; 4× (320 g ai/ha)): 84.3% | plant height (% of untreated) ([2]; 4× (320 g ai/ha)): 92.1% | root dry weight (% of untreated) ([2]; 4× (320 g ai/ha)): 74.5% | Phytotoxicity Index ([2]; 5× (400 g ai/ha)): 0.0 | biomass accumulation (dry biomass, % of untreated) ([2]; 5× (400 g ai/ha)): 77.5% | plant height (% of untreated) ([2]; 5× (400 g ai/ha)): 84.8% | root dry weight (% of untreated) ([2]; 5× (400 g ai/ha)): 65.0% | Phytotoxicity Index ([2]; 6× (480 g ai/ha)): 0.5 | biomass accumulation (dry biomass, % of untreated) ([2]; 6× (480 g ai/ha)): 70.7% | plant height (% of untreated) ([2]; 6× (480 g ai/ha)): 79.8% | root dry weight (% of untreated) ([2]; 6× (480 g ai/ha)): 57.8% | biomass accumulation (dry biomass, % of untreated) ([3]; 0.5× (40 g ai/ha)): 93.9% | plant height (% of untreated) ([3]; 0.5× (40 g ai/ha)): 96.2% | root dry weight (% of untreated) ([3]; 0.5× (40 g ai/ha)): 94.0% | biomass accumulation (dry biomass, % of untreated) ([3]; 1× (80 g ai/ha)): 87.9% | plant height (% of untreated) ([3]; 1× (80 g ai/ha)): 80.0% | root dry weight (% of untreated) ([3]; 1× (80 g ai/ha)): 89.6% | biomass accumulation (dry biomass, % of untreated) ([3]; 2× (160 g ai/ha)): 58.8% | plant height (% of untreated) ([3]; 2× (160 g ai/ha)): 61.5% | root dry weight (% of untreated) ([3]; 2× (160 g ai/ha)): 50.7% | biomass accumulation (dry biomass, % of untreated) ([3]; 3× (240 g ai/ha)): 46.4% | plant height (% of untreated) ([3]; 3× (240 g ai/ha)): 40.9% | root dry weight (% of untreated) ([3]; 3× (240 g ai/ha)): 37.3% | biomass accumulation (dry biomass, % of untreated) ([3]; 4× (320 g ai/ha)): 35.5% | plant height (% of untreated) ([3]; 4× (320 g ai/ha)): 27.9% | root dry weight (% of untreated) ([3]; 4× (320 g ai/ha)): 32.8% | plant height (% of untreated) ([3]; 5× (400 g ai/ha)): 30.0% | root dry weight (% of untreated) ([3]; 5× (400 g ai/ha)): 25.4% | biomass accumulation (dry biomass, % of untreated) ([3]; 6× (480 g ai/ha)): 29.4% | root dry weight (% of untreated) ([3]; 6× (480 g ai/ha)): 19.4% | Phytotoxicity Index ([4]; 0.5× (40 g ai/ha)): 0.5 | biomass accumulation (dry biomass, % of untreated) ([4]; 0.5× (40 g ai/ha)): 100% | plant height (% of untreated) ([4]; 0.5× (40 g ai/ha)): 99.2% | root dry weight (% of untreated) ([4]; 0.5× (40 g ai/ha)): 100% | Phytotoxicity Index ([4]; 1× (80 g ai/ha)): 0.5 | biomass accumulation (dry biomass, % of untreated) ([4]; 1× (80 g ai/ha)): 97.2% | plant height (% of untreated) ([4]; 1× (80 g ai/ha)): 98.6% | root dry weight (% of untreated) ([4]; 1× (80 g ai/ha)): 98.1% | Phytotoxicity Index ([4]; 2× (160 g ai/ha)): 0.5 | biomass accumulation (dry biomass, % of untreated) ([4]; 2× (160 g ai/ha)): 97.9% | plant height (% of untreated) ([4]; 2× (160 g ai/ha)): 100.3% | root dry weight (% of untreated) ([4]; 2× (160 g ai/ha)): 96.2% | Phytotoxicity Index ([4]; 3× (240 g ai/ha)): 0.5 | biomass accumulation (dry biomass, % of untreated) ([4]; 3× (240 g ai/ha)): 98.2% | plant height (% of untreated) ([4]; 3× (240 g ai/ha)): 99.6% | root dry weight (% of untreated) ([4]; 3× (240 g ai/ha)): 79.3% | Phytotoxicity Index ([4]; 4× (320 g ai/ha)): 0.5 | biomass accumulation (dry biomass, % of untreated) ([4]; 4× (320 g ai/ha)): 97.8% | plant height (% of untreated) ([4]; 4× (320 g ai/ha)): 101.0% | root dry weight (% of untreated) ([4]; 4× (320 g ai/ha)): 78.4% | Phytotoxicity Index ([4]; 5× (400 g ai/ha)): 0.5 | biomass accumulation (dry biomass, % of untreated) ([4]; 5× (400 g ai/ha)): 85.1% | plant height (% of untreated) ([4]; 5× (400 g ai/ha)): 87.0% | root dry weight (% of untreated) ([4]; 5× (400 g ai/ha)): 85.8% | Phytotoxicity Index ([4]; 6× (480 g ai/ha)): 0.5 | biomass accumulation (dry biomass, % of untreated) ([4]; 6× (480 g ai/ha)): 79.5% | plant height (% of untreated) ([4]; 6× (480 g ai/ha)): 79.6% | root dry weight (% of untreated) ([4]; 6× (480 g ai/ha)): 57.3% | biomass accumulation (dry biomass, % of untreated) ([5]; 0.5× (40 g ai/ha)): 96.5% | plant height (% of untreated) ([5]; 0.5× (40 g ai/ha)): 99.6% | root dry weight (% of untreated) ([5]; 0.5× (40 g ai/ha)): 100% | biomass accumulation (dry biomass, % of untreated) ([5]; 1× (80 g ai/ha)): 94.1% | plant height (% of untreated) ([5]; 1× (80 g ai/ha)): 97.4% | root dry weight (% of untreated) ([5]; 1× (80 g ai/ha)): 100% | biomass accumulation (dry biomass, % of untreated) ([5]; 2× (160 g ai/ha)): 97.6% | plant height (% of untreated) ([5]; 2× (160 g ai/ha)): 95.2% | root dry weight (% of untreated) ([5]; 2× (160 g ai/ha)): 100% | biomass accumulation (dry biomass, % of untreated) ([5]; 3× (240 g ai/ha)): 95.8% | plant height (% of untreated) ([5]; 3× (240 g ai/ha)): 93.0% | root dry weight (% of untreated) ([5]; 3× (240 g ai/ha)): 92.2% | biomass accumulation (dry biomass, % of untreated) ([5]; 4× (320 g ai/ha)): 88.3% | plant height (% of untreated) ([5]; 4× (320 g ai/ha)): 93.0% | root dry weight (% of untreated) ([5]; 4× (320 g ai/ha)): 96.1% | biomass accumulation (dry biomass, % of untreated) ([5]; 5× (400 g ai/ha)): 85.6% | plant height (% of untreated) ([5]; 5× (400 g ai/ha)): 93.9% | root dry weight (% of untreated) ([5]; 5× (400 g ai/ha)): 84.2% | biomass accumulation (dry biomass, % of untreated) ([5]; 6× (480 g ai/ha)): 76.8% | plant height (% of untreated) ([5]; 6× (480 g ai/ha)): 84.3% | root dry weight (% of untreated) ([5]; 6× (480 g ai/ha)): 74.3%

Source: patent US20150176022A1, “HERBICIDE-RESISTANT SUNFLOWER PLANTS, POLYNUCLEOTIDES ENCODING HERBICIDE=RESISTANT ACETO HYDROXY ACID SYNTHASE LARGE SUBUNIT PROTEINS, AND METHODS OF USE” (priority 2013, published 2015)
